Like-named read-outs stand apart in the source and are kept apart here.
Columns and labels:
Type in all cases: cell-based
[1] = molecular target: T1, alpha 2C receptor (Homo sapiens, UniProt P18825); assay: RSAT assay (Receptor Selection and Amplification Technology), Alpha 2C; details: for Intrinsic Activity efficacy Alpha 2C: value in parentheses, ratio of maximal effect to that of brimonidine
T1 construct: expressed in transfected cells; host or cells: NIH-3T3
T1 sequence (P18825 1-462): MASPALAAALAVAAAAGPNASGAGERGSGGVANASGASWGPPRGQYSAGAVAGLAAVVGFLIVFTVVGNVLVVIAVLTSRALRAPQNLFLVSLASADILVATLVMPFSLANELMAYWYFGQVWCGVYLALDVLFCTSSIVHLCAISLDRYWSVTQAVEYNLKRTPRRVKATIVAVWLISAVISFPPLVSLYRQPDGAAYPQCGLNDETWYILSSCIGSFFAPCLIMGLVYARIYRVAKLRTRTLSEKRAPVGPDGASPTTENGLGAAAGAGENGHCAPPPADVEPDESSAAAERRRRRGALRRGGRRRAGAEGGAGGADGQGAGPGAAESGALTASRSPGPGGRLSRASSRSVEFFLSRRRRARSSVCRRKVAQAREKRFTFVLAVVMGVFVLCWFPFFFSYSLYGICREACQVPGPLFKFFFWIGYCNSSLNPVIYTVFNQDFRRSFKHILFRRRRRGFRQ
Protocol: (§1) The RSAT assay measures a receptor-mediated loss of contact inhibition that results in selective proliferation of receptor-containing cells in a mixed population of confluent cells. The increase in cell number is assessed with an appropriate transfected marker gene such as β-galactosidase, the activity of which can be easily measured in a 96-well format. Receptors that activate the G protein, Gq, elicit this response. Alpha 2 receptors, which normally couple to Gi, activate the RSAT response when coexpressed with a hybrid Gq protein that has a Gi receptor recognition domain, called Gq/i5.
(§2) NIH-3T3 cells are plated at a density of 2×10^6 cells in 15 cm dishes and maintained in Dulbecco's modified Eagle's medium supplemented with 10% calf serum. One day later, cells are cotransfected by calcium phosphate precipitation with mammalian expression plasmids encoding p-SV-β-galactosidase (5-10 μg), receptor (1-2 μg) and G protein (1-2 μg). 40 μg salmon sperm DNA may also be included in the transfection mixture. […] Cells are thawed and 100 μl added to 100 μL aliquots of various concentrations of drugs in triplicate in 96-well dishes. Incubations continue 72-96 hr at 37° C. After washing with phosphate-buffered saline, β-galactosidase enzyme activity is determined by adding 200 μL of the chromogenic substrate (consisting of 3.5 mM o-nitrophenyl-β-D-galactopyranoside and 0.5% nonidet P-40 in phosphate buffered saline), incubating overnight at 30° C. and measuring optical density at 420 nm. The absorbance is a measure of enzyme activity, which depends on cell number and reflects a receptor-mediated cell proliferation. The efficacy or intrinsic activity is calculated as a ratio of the maximal effect of the drug to the maximal effect of a standard full agonist for each receptor subtype. Brimonidine, the chemical structure of which is shown below, is used as the standard agonist for the alpha 2B and alpha 2C receptors. […] NA stands for “not active” at concentrations less than 3-10 micromolar.

[2] = molecular target: T2, alpha 2B receptor (Homo sapiens, UniProt P18089); assay: RSAT assay (Receptor Selection and Amplification Technology), Alpha 2B; details: for Intrinsic Activity efficacy Alpha 2B: value in parentheses, ratio of maximal effect to that of brimonidine
T2 construct: expressed in transfected cells; host or cells: NIH-3T3
T2 sequence (P18089 1-450): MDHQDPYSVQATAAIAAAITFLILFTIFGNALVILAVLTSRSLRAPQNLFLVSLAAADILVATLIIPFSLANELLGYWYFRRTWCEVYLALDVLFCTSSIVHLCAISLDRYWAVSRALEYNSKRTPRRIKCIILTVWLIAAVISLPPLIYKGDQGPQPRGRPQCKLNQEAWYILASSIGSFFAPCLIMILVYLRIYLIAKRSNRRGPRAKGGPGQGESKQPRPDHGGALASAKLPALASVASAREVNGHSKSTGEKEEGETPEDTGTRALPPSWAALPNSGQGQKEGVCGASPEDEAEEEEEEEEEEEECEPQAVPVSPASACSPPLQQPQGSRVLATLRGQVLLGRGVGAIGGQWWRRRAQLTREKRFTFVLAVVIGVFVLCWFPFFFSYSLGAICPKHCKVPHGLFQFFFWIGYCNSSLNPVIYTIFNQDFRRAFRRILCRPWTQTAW
Protocol: as §1, §2

[3] = molecular target: T3, Alpha 1A (Homo sapiens, UniProt P35348); assay: RSAT assay (Receptor Selection and Amplification Technology), Alpha 1A; details: value in parentheses, ratio of maximal effect of drug to maximal effect of standard full agonist
T3 sequence (P35348 1-466): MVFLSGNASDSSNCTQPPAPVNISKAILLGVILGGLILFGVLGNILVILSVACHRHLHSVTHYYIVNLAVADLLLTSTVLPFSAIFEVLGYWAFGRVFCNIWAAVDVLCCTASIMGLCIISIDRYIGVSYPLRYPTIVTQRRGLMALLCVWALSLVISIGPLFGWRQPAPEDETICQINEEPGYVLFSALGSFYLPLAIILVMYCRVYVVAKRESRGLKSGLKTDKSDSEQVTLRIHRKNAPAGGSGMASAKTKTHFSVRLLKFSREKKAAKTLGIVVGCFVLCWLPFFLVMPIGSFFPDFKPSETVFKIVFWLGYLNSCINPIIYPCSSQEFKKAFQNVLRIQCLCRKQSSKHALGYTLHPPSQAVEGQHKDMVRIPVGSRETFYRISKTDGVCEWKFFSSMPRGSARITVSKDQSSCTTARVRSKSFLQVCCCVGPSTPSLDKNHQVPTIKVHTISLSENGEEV
Protocol: as §1, §2

[4] = RSAT, transfected NIH-3T3 cells with Gq/i5, NA = not active at concentrations less than 10 micromolar, read-out: potency nM (EC50) Alpha 2C
[5] = RSAT, transfected NIH-3T3 cells with Gq/i5, Table 1, read-out: potency nM (EC50) Alpha 2B

EC50 [1, 4] [nM]	Intrinsic Activity efficacy Alpha 2C ([1]; RSAT)	EC50 [2, 5] [nM]	Intrinsic Activity efficacy Alpha 2B ([2]; RSAT, Table 1)	Intrinsic Activity efficacy Alpha 1A [3]	Compound	EC50 [1] [nM]	EC50 [2] [nM]
80	0.68	2.1	1.1	0.88	Cc1cccc(C(Cc2ccncc2)/N=C2/NCCO2)c1C (centres unmarked) [Compound 6, 1-(2,3-Dimethylphenyl)-N-(oxazolidin-2-ylidene)-2-(pyridin-4-yl)ethanamine]		
17	0.86	17	0.78	1.6	COc1ccccc1C(Cc1cccnc1)/N=C1/NCCS1 (centres unmarked) [Compound 11, 1-(2-Methoxyphenyl)-2-(pyridin-3-yl)-N-(thiazolidin-2-ylidene)ethanamine]		
23	0.66	9	0.62	1.12	COc1ccccc1C(Cc1cccnc1)/N=C1/NCCO1 (centres unmarked) [Compound 13, 1-(2-Methoxyphenyl)-N-(oxazolidin-2-ylidene)-2-(pyridin-3-yl)ethanamine]		
100	0.5	170	0.97	1.1	c1ccc(C(Cc2cnccn2)/N=C2/NCCS2)cc1 (centres unmarked) [Compound 16, 1-Phenyl-2-(pyrazin-2-yl)-N-(thiazolidin-2-ylidene)ethanamine]		
30	0.65	5	1.15	1.3	Clc1cccc(C(Cc2ccncc2)/N=C2/NCCO2)c1Cl (centres unmarked) [Compound 17, 1-(2,3-Dichlorophenyl)-N-(oxazolidin-2-ylidene)-2-(pyridin-4-yl)ethanamine]		
21	0.6	2	1.1	1.0	Clc1cccc(C(Cc2ccncc2)/N=C2/NCCS2)c1Cl (centres unmarked) [Compound 18, 1-(2,3-Dichlorophenyl)-2-(pyridin-4-yl)-N-(thiazolidin-2-ylidene)ethanamine]		
237	0.93	14.3	0.98	1.1	Fc1cccc(C(Cc2ccncc2)/N=C2/NCCO2)c1 (centres unmarked) [Compound 24, 1-(3-Fluorophenyl)-N-(oxazolidin-2-ylidene)-2-(pyridin-4-yl)ethanamine]		
6.1	1.0	21	0.64	1.1	c1ccc([C@@H](Cc2ccncc2)/N=C2/NCCS2)cc1 [Compound 31, R-1-phenyl-2-(pyridin-4-yl)-N-(thiazolidin-2-ylidene)ethanamine]		

Compound	EC50 [1, 4] [nM]	Intrinsic Activity efficacy Alpha 2C ([1]; RSAT)	EC50 [2, 5] [nM]	Intrinsic Activity efficacy Alpha 2B ([2]; RSAT, Table 1)	Intrinsic Activity efficacy Alpha 1A [3]	EC50 [1] [nM]	EC50 [2] [nM]
Fc1cccc(C(Cc2ccncc2)N=C2NCCN2)c1 (centres unmarked) [Compound 25, 1-(3-Fluorophenyl)-N-(imidazolidin-2-ylidene)-2-(pyridin-4-yl)ethanamine]		1.03		0.68	0.97	16	25
c1ccc([C@@H](Cc2ccncc2)/N=C2/NCCO2)cc1 [Compound 30, R—N-(oxazolidin-2-ylidene)-1-phenyl-2-(pyridin-4-yl)ethanamine]		0.78		1.16	1.1	24	6
